From US20240368096A1 (Enanta Pharmaceuticals, Inc., priority 2022, published 2024)

Tested on: HBV
Test: HBV infection in HepG2-NTCP cells (HBeAg AlphaLISA in supernatants)
Assay type: cell-based
Details: Hepatitis B virus, 192 h; HBV infection of HepG2-NTCP cells; HBeAg in supernatants at day 8 post infection; read-out: Cellular EC50
In short: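 HepG2-NTCP A3 cells were pre-incubated 2 h with 3-fold serially diluted compounds, then infected with HBV at 2000 GE/cell with 4% PEG (0.5% DMSO final). After washing on day 1, cells stayed in 2.5% DMSO medium; supernatant HBeAg measured by AlphaLISA on day 8, EC50 versus DMSO controls.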

`CN1[C@H](C2CCCCC2)CN(c2ccc3c(c2)OC(F)(F)O3)c2cc(Cl)c(-c3ccc(F)c(C(=O)O)c3)cc2S1(=O)=O` [Example 314] and `CN1[C@H](C2CCCCC2)CN(c2ccc(OC(F)(F)F)cc2)c2cc(Cl)c(-c3ccc(F)c(C(=O)O)c3)cc2S1(=O)=O` [Example 292] cannot be ordered by EC50: less than 100 nM for the first, less than 100 nM for the second.

`CN1[C@H](C2CCCCC2)CN(c2ccccc2)c2cc(OCC3CC(F)(F)C3)c(-c3ccc(F)c(C(=O)O)c3)cc2S1(=O)=O` [Example 363] and `CN1[C@H](C2CCCCC2)CN(c2ccccc2)c2cc(OC3CC(C)(C)C3)c(-c3ccc(F)c(C(=O)O)c3)cc2S1(=O)=O` [Example 375] cannot be ordered by EC50: less than 100 nM for the first, less than 100 nM for the second.

Compared with `CN1C(C23CC(C2)C3)CN(c2ccccc2)c2cc(Cl)c(-c3ccc(F)c(C(=O)O)c3)cc2S1(=O)=O` (stereo not drawn) [Example 86], `CCC1CN(c2ccccc2)c2cc(Cl)c(-c3ccc(F)c(C(=O)O)c3)cc2S(=O)(=O)N1C` (stereo not drawn) [Example 45] is higher in EC50: 100 to 1000 nM for the first, greater than 1000 nM for the second.

First: CC(C)C[C@@H]1CN(c2ccccc2)c2cc(Cl)c(-c3cc(OC(F)(F)F)cc(C(=O)O)c3)cc2S(=O)(=O)N1C [Example 161]
Second: CC(C)C[C@@H]1CN(c2ccccc2)c2cc(Cl)c(-c3ccc(C(F)(F)F)c(C(=O)O)c3)cc2S(=O)(=O)N1C [Example 186]
The EC50 of the first is higher: 100 to 1000 nM for the first, less than 100 nM for the second.

`CC(=O)N1CCC(Oc2cc3c(cc2-c2ccc(F)c(C(=O)O)c2)S(=O)(=O)N(C)[C@H](C2CCCCC2)CN3c2ccccc2)CC1` [Example 395, (R)-5-(7-((1-acetylpiperidin-4-yl)oxy)-3-cyclohexyl-2-methyl-1,1-dioxido-5-phenyl-2,3,4,5-tetrahydrobenzo[f][1,2,5]thiadiazepin-8-yl)-2-fluorobenzoic acid] and `CN1[C@H](C2CCCCC2)CN(c2ccccc2)c2cc(C34CC(C3)C4)c(-c3ccc(F)c(C(=O)O)c3)cc2S1(=O)=O` [Example 587] fall in the same range of EC50: 100 to 1000 nM for the first, 100 to 1000 nM for the second.

First: CC(C)C[C@@H]1CN(c2ccccc2)c2cc(N3CCCCC3)c(-c3ccc(Cl)c(C(=O)O)c3)cc2S(=O)(=O)N1C [Example 552]
Second: CC(C)C[C@@H]1CN(c2ccccc2)c2cc(N3CCc4cccc(F)c43)c(-c3ccc(Cl)c(C(=O)O)c3)cc2S(=O)(=O)N1C [Example 553]
The EC50 of the first is lower: less than 100 nM for the first, 100 to 1000 nM for the second. The first is the more potent here.

`CC(C)C[C@@H]1CN(c2ccccc2)c2cc(Cl)c(-c3cccc(CC(=O)O)c3)cc2S(=O)(=O)N1C` [Example 173] and `CC(C)C[C@@H]1CN(c2ccccc2)c2cc(Cl)c(-c3ccc4[nH]cc(C(=O)O)c4c3)cc2S(=O)(=O)N1C` [Example 212] cannot be ordered by EC50: greater than 1000 nM for the first, greater than 1000 nM for the second.

`CC(C)CC1CN(C2CC2)c2cc(Cl)c(-c3cccc(C(=O)O)c3)cc2S(=O)(=O)N1C` (stereo not drawn) [Example 327] and `CC(C)C[C@@H]1CN(C2CC(F)(F)C2)c2cc(Oc3ccccc3F)c(-c3ccc(F)c(C(=O)O)c3)cc2S(=O)(=O)N1C` [Example 466, (R)-5-(5-(3,3-difluorocyclobutyl)-7-(2-fluorophenoxy)-3-isobutyl-2-methyl-1,1-dioxido-2,3,4,5-tetrahydrobenzo[f][1,2,5]thiadiazepin-8-yl)-2-fluorobenzoic acid] fall in the same range of EC50: 100 to 1000 nM for the first, 100 to 1000 nM for the second.

`CCCCC[C@@H](C)Oc1cc2c(cc1-c1cc(F)c(C(=O)O)s1)S(=O)(=O)N(C)[C@H](C1CCCCC1)CN2c1ccccc1` [Example 491] and `Cc1cc(COc2cc3c(cc2-c2cc(F)c(C(=O)O)s2)S(=O)(=O)N(C)[C@H](C2CCCCC2)CN3c2ccccc2)cs1` [Example 493] fall in the same range of EC50: 100 to 1000 nM for the first, 100 to 1000 nM for the second.

First: CN1[C@H](CN2CCCC(F)(F)C2)CN(c2ccccc2)c2cc(Cl)c(-c3ccc(F)c(C(=O)O)c3)cc2S1(=O)=O [Example 112]
Second: CN1C(CC2CCCC2)CN(c2ccccc2)c2cc(Cl)c(-c3ccc(F)c(C(=O)O)c3)cc2S1(=O)=O (stereo not drawn) [Example 77]
The EC50 of the first is higher: greater than 1000 nM for the first, 100 to 1000 nM for the second. The second is the more potent here.

`CC(C)C[C@@H]1CN(c2ccccc2)c2cc(OCc3cccnc3)c(-c3ccc(F)c(C(=O)O)c3)cc2S(=O)(=O)N1C` [Example 456] and `CC(C)C[C@@H]1CN(c2ccccc2)c2cc(Oc3cccc(Cl)c3)c(-c3ccc(F)c(C(=O)O)c3)cc2S(=O)(=O)N1C` [Example 432] fall in the same range of EC50: 100 to 1000 nM for the first, 100 to 1000 nM for the second.

Compared with `CN1[C@H](C2CCCCC2)CN(c2ccccc2)c2cc(Cl)c([C@H]3C[C@@H](C(=O)O)C3)cc2S1(=O)=O` [Example 607, (1S,3s)-3-((R)-7-chloro-3-cyclohexyl-2-methyl-1,1-dioxido-5-phenyl-2,3,4,5-tetrahydrobenzo[f][1,2,5]thiadiazepin-8-yl)cyclobutane-1-carboxylic acid], `CN1[C@H](C2CCCCC2)CN(c2ccccc2)c2cc(Cl)c(-c3cc(C(=O)O)cs3)cc2S1(=O)=O` [Example 129, (R)-5-(7-chloro-3-cyclohexyl-2-methyl-1,1-dioxido-5-phenyl-2,3,4,5-tetrahydrobenzo[f][1,2,5]thiadiazepin-8-yl)thiophene-3-carboxylic acid] is lower in EC50: greater than 1000 nM for the first, 100 to 1000 nM for the second. The second is the more potent here.

`CN1[C@H](C2CCCCC2)CN(c2ccccc2)c2cc(Cl)c(-c3cc(NC(=O)OC4CCC4)c(C(=O)O)s3)cc2S1(=O)=O` [Example 250] and `CN1[C@H](C2CCCCC2)CN(c2ccccc2)c2cc(Cl)c(-c3cc(NC(=O)OCC(C)(C)C)c(C(=O)O)s3)cc2S1(=O)=O` [Example 255] cannot be ordered by EC50: less than 100 nM for the first, less than 100 nM for the second.

First: O=C(O)c1cncc(-c2cc3c(cc2F)N(c2ccccc2)CC2CC4(CC4)CN2S3(=O)=O)c1 (stereo not drawn) [Example 6]
Second: CCOC[C@@H]1CN(c2ccccc2)c2cc(Cl)c(-c3ccc(F)c(C(=O)O)c3)cc2S(=O)(=O)N1C [Example 93, (S)-5-(7-chloro-3-(ethoxymethyl)-2-methyl-1,1-dioxido-5-phenyl-2,3,4,5-tetrahydrobenzo[f][1,2,5]thiadiazepin-8-yl)-2-fluorobenzoic acid]
The EC50 of the first is higher: greater than 1000 nM for the first, 100 to 1000 nM for the second.

`CCOc1ccc(-c2cc3c(cc2Cl)N(c2ccccc2)C[C@@H](C2CCCCC2)N(C)S3(=O)=O)cc1C(=O)O` [Example 155, (R)-5-(7-chloro-3-cyclohexyl-2-methyl-1,1-dioxido-5-phenyl-2,3,4,5-tetrahydrobenzo[f][1,2,5]thiadiazepin-8-yl)-2-ethoxybenzoic acid] and `CN1[C@H](C2CCC2)CN(c2ccccc2)c2cc(Cl)c(-c3ccc(O)c(C(=O)O)c3)cc2S1(=O)=O` [Example 159] fall in the same range of EC50: 100 to 1000 nM for the first, 100 to 1000 nM for the second.

Compared with `CN1[C@H](C2CCCCC2)CN(c2ccccc2)c2cc(OCCc3ccco3)c(-c3ccc(F)c(C(=O)O)c3)cc2S1(=O)=O` [Example 345], `CN1[C@H](C2CCCCC2)CN(c2ccccc2)c2cc(OCCc3ccsc3)c(-c3ccc(F)c(C(=O)O)c3)cc2S1(=O)=O` [Example 346] is higher in EC50: less than 100 nM for the first, 100 to 1000 nM for the second.

`CN1[C@H](C2CCCCC2)CN(c2ccccc2)c2cc(OCc3cccs3)c(-c3ccc(F)c(C(=O)O)c3)cc2S1(=O)=O` [Example 335] and `CCCC[C@@H]1CN(c2ccccc2)c2cc(Oc3ccc(Cl)cc3)c(-c3ccc(F)c(C(=O)O)c3)cc2S(=O)(=O)N1C` [Example 418] cannot be ordered by EC50: less than 100 nM for the first, less than 100 nM for the second.

Compared with `CN1[C@@H](Cc2ccc(Cl)cc2)CN(c2ccccc2)c2cc(F)c(-c3ccc(F)c(C(=O)O)c3)cc2S1(=O)=O` [Example 2], `CCCC[C@@H]1CN(c2ccccc2)c2cc(Oc3cccc(OC)c3)c(-c3ccc(F)c(C(=O)O)c3)cc2S(=O)(=O)N1C` [Example 420] is lower in EC50: greater than 1000 nM for the first, 100 to 1000 nM for the second. The second is the more potent here.
